These results are taken from patent EP0369664B1, “Fish CRF” (THE SALK INSTITUTE FOR BIOLOGICAL STUDIES, priority 1988, dated 1994).

Read-outs that look alike come from different tables or passages of the source. No end group written: not given here.

Test [1] has as its system secretion of ACTH and β-END-LI. Nature of the test: secretion of ACTH and β-END-LI, test system not specified.
The nature of test [2]: vasodilatory-hypotensive activity, lowering of systemic blood pressure. The conditions noted are these: for vasodilatory-hypotensive activity: called mammalian for Example III only; for systemic blood pressure: in vivo. Type of test: in vivo.
For test [3], the system named is cultured rat pituitary cells. Nature of the test: secretion of ACTH and β-endorphin by cultured rat pituitary cells. Type of test: cell-based.
In test [4] the test system is ACTH and β-END-LI secretion. Nature of the test: ACTH and β-END-LI secretion in vivo in several rat preparations.
Test [5] is described as follows: blood pressure in the dog. Type of test: in vivo.
Test [6] is described as follows: blood pressure in the rat. The class given is in vivo.
A further test concerns teleost fish pituitaries. Nature of the test: secretion of ACTH by teleost fish pituitaries. The class given is cell-based.
Test [7] is described as follows: activity and learning performance after administration into the ventricles. Type of test: in vivo. The conditions noted are these: rats, administered into the ventricles.
The next test has as its system ACTH and β-endorphin. Nature of the test: ACTH and β-endorphin activities in vitro and in vivo, general statement.
A short description of test [8]: lowering of blood pressure, general statement. The class given is in vivo. The conditions noted are these: for an extended time period.
The test system of test [9] is pituitary-adrenalcortical axis. Nature of the test: stimulation of the pituitary-adrenalcortical axis and levels of pro-opiomelanocortin products. The conditions noted are these: in vivo.
The conditions of test [10]: in mammals; reported; cited from earlier work.
In test [11] the test system is secretion of ACTH and β-endorphin. The settings on record: reported; cited from earlier work.
For another test, the system named is gastric acid production. The conditions noted are these: in vivo; cited from earlier work.

Consider “Ac-SEEPPISLDLTFHLLREVLEMARAEQLAQQAHSNRKMMEIF-NH2 [II]”, for which, in test [1], the “secretion of ACTH” value was “stimulates” and the “secretion of β-END-LI” value is given as “stimulates”. Further, in test [2], the vasodilatory-hypotensive activity result is reported as “causes vasodilatory-hypotensive activity” and the systemic blood pressure result is listed as “lowering”.
Consider “PPISLDLTFHLLREVLEMARAEQLAQQAHSNRKMMEIF-NH2 [III]”, for which the “secretion of ACTH” value in test [1] is listed as “stimulates”. Moreover, in test [2], the vasodilatory-hypotensive activity result is listed as “significant” and the systemic blood pressure entry was “lowering”.
For the substance “SEEPPISLDLTFHLLREVLEMARAEQLAQQAHSNRKMMEIF-NH2 [Example I]”, in test [3], the “secretion of ACTH” value is “stimulates” and the “secretion of β-endorphin” value was “stimulates”. For the same substance, in test [4], the ACTH secretion result was “stimulates” and the β-END-LI secretion result is recorded as “stimulates”. In addition, the blood pressure result in [5] is given as “sustained depression”. Besides, in test [6], the blood pressure result is listed as “marked fall”. Also, in the test with teleost fish pituitaries, the “secretion of ACTH” value is on record as “stimulates”. In test [7], the activity result is reported as “increases” and the learning performance result is recorded as “improves”. Besides, in the test on ACTH and β-endorphin, the ACTH activies result is “stimulates” and the β-endorphin activies result is “stimulates”. Further, in test [8], the blood pressure result was “substantially lowers”. In test [9], the “levels of ACTH, β-END, β-lipotropin, other pro-opiomelanocortin gene products and corticosterone” value is “elevates”; the pituitary-adrenalcortical axis entry is “profoundly stimulates”.
As for Sauvagine, the blood pressure entry in [10] is recorded as “lowering”. Besides, in test [11], the “secretion of ACTH” value is listed as “stimulating” and the “secretion of β-endorphin” value is listed as “stimulating”.
Turning to “oCRF: ovine corticotropin releasing factor, characterized in 1981, U.S. Patent No. 4,415,558 (H-SQEPPISLDLTFHLLREVLEMTKADQLAQQAHSNRKLLDIA-NH2; ends and bridges not checked; UniProt P01142 148-188, looked up)”, in test [10], the blood pressure entry is “lowering”. For the same substance, in test [11], the “secretion of ACTH” value is “stimulating” and the “secretion of β-endorphin” value is “stimulating”. Also, the gastric acid production result in the test on gastric acid production was “inhibits”.
